Laboratory results as given in patent US20150065442A1, “REDUCIBLE SELF-ASSEMBLED MICELLE DRUG DELIVERY SYSTEMS” (University of Manitoba, priority 2012, published 2015).

What was measured:
HepG2 cells = experiment: MTT cytotoxicity (cell inhibition) assay; type: cell-based, human
Method: Hepatoma cells (HepG2) were used to investigate cell inhibition of DOX-loaded nanoparticles. HepG2 cells were obtained from the American Type Culture Collection and cultured with Dulbecco's Modified Eagle's Medium (DMEM, GIBCO) supplemented with 10% fetal bovine serum (FBS, GIBCO), 1.0×10^5 U/l penicillin (Sigma) and 100 mg/l streptomycin (Sigma) at 37° C. in 5% CO2.
The cytotoxicity of the copolymeric micelles loaded with DOX was determined using the MTT Cell Proliferation Kit (Biotium Inc., Hayward, Calif., USA). HepG2 cells were seeded into a 96-well tissue culture plate at a density of 8,000 cells per well and were incubated at 37° C. in 5% CO2. The growth medium was replaced with fresh DMEM after 24 h. Then the DOX-loaded PAE polymeric micelle solution and controls (free DOX and blank micelle solutions) were added into wells (six wells per sample). After 48 h of incubation, 10 μL MTT solution was added to each well and incubation continued for another 4 h. […] The absorbance of each well was measured using an ELISA plate reader at a test wavelength of 570 nm and a reference wavelength of 630 nm. The cell inhibition of samples was calculated as: […]
where Isample and Icontrol represent the intensity determined for cells treated with different samples and for control cells (untreated), respectively.

[1] = system: MCF-7 human breast cancer cells; experiment: Cellular uptake of DOX by confocal laser scanning microscopy; type: cell-based
Method: Confocal laser scanning microscopy (CLSM) was employed to examine the cellular uptake of DOX by incubating MCF-7 human breast cancer cells with free DOX or DOX-loaded reducible self-assembled rPAE micelles or DOX-loaded non-reducible self-assembled nPAE micelles for 15 min and 2 h. First, the MCF-7 cells were seeded in 10-cm culture dishes at a density of 2×10^5 cells/dish, overlaid with cover slips, and cultured for 24 h. Then, the cells were exposed to DOX-loaded micelles. After the predetermined incubation times, the cover slips were removed and washed with cold PBS three times after which, the cells were fixed by 4% paraformaldehyde in PBS at room temperature for 15 min. After fixation, the cells were permeabilized by 0.1% Triton X-100 in PBS for 10 min and then rinsed with PBS three times. The cells were incubated in 10 uM BODIPY® FL phallacidin/1% (w/v) BSA solution for 20 min and then rinsed with PBS three times. The cells were then incubated in 10 μM Topro-3 for 20 min and then rinsed with PBS three times. The cover slips were set onto microscope slides and examined by CLSM.

[2] = system: hepatocellular carcinomatous HepG2 cells; experiment: as above; type: cell-based, human
Method: Confocal laser scanning microscopy (CLSM) was employed to examine the cellular uptake of DOX by incubating hepatocellular carcinomatous HepG2 cells with free DOX or the DOX-loaded micelles for 15 min, 2 h or 24 h. First, the HepG2 cells were seeded in culture dishes at a density of 2×10^5 cells/dish, overlaid with cover slips, and cultured for 24 h. Then, the cells were exposed to DOX-loaded micelles. After predetermined incubation times, the cover slips were removed and was washed with cold PBS three times after which, the cells were fixed by 4% paraformaldehyde in PBS at room temperature for 15 min. After fixation, the cells were permeabilized by 0.1% Triton X-100 in PBS for 10 min and then rinsed with PBS three times. The cells were incubated in 10 uM BODIPY® FL phallacidin/1% (w/v) BSA solution for 20 min and then rinsed with PBS three times (BODIPY is a registered trademark of Molecular Probes Inc., Eugene, Oreg., USA). The cells were then incubated in 10 μM Topro-3 for 20 min and then rinsed with PBS three times. The cover slips were set onto microscope slides and examined by CLSM.

## COc1cccc2c1C(=O)c1c(O)c3c(c(O)c1C2=O)C[C@@](O)(C(=O)CO)C[C@@H]3O[C@H]1C[C@H](N)[C@H](O)[C@H](C)O1 [free DOX, doxorubicin]
HepG2 cells
  Cytotoxicity, dose dependence: increases with increasing dose
[1]; MCF-7, 15 min of incubation
  Intracellular DOX fluorescence: fluorescing DOX molecules were observed intracellularly
[1]; MCF-7, 2 hr of incubation
  Intracellular DOX fluorescence: accumulations of DOX molecules around the nuclei
[2]; HepG2, 15-min incubation
  Intracellular distribution of DOX fluorescence: evenly distributed in cell cytoplasm and the nuclei
[2]; HepG2, 2 h exposure
  Intracellular distribution of DOX fluorescence: DOX fluorescence accumulation was detected in and around the nuclei
[2]; HepG2, 24 h exposure
  Cell morphology after exposure: nucleus became distinctively swollen and the cytoplasm shrank
  Intracellular distribution of DOX fluorescence: most of DOX fluorescence was distributed into the nucleus
